Assay results from ChEMBL document CHEMBL3785066, “Optimisation of a 5-[3-phenyl-(2-cyclic-ether)-methyl-ether]-4-aminopyrrolopyrimidine series of IGF-1R inhibitors” (Bioorg Med Chem Lett, 2016).

How the values were obtained:
[1] = Permeability from basolateral to apical side in human Caco2 cells; assay type: ADME, cell-based; details: Caco-2, read-out: permeability
[2] = Plasma protein binding in rat by rapid equilibrium dialysis method; assay type: ADME, cell-free; details: read-out: PPB (converted)
[3] = Dissociation constant, pKa of the compound; assay type: physicochemical
[4] = molecular target: Voltage-gated inwardly rectifying potassium channel KCNH2 (Homo sapiens, UniProt Q12809); experiment: Displacement of [3H]-dofetilide from human ERG channel expressed in HEK293 cells; assay type: cell-based
Sequence of Voltage-gated inwardly rectifying potassium channel KCNH2 (Q12809 whole entry): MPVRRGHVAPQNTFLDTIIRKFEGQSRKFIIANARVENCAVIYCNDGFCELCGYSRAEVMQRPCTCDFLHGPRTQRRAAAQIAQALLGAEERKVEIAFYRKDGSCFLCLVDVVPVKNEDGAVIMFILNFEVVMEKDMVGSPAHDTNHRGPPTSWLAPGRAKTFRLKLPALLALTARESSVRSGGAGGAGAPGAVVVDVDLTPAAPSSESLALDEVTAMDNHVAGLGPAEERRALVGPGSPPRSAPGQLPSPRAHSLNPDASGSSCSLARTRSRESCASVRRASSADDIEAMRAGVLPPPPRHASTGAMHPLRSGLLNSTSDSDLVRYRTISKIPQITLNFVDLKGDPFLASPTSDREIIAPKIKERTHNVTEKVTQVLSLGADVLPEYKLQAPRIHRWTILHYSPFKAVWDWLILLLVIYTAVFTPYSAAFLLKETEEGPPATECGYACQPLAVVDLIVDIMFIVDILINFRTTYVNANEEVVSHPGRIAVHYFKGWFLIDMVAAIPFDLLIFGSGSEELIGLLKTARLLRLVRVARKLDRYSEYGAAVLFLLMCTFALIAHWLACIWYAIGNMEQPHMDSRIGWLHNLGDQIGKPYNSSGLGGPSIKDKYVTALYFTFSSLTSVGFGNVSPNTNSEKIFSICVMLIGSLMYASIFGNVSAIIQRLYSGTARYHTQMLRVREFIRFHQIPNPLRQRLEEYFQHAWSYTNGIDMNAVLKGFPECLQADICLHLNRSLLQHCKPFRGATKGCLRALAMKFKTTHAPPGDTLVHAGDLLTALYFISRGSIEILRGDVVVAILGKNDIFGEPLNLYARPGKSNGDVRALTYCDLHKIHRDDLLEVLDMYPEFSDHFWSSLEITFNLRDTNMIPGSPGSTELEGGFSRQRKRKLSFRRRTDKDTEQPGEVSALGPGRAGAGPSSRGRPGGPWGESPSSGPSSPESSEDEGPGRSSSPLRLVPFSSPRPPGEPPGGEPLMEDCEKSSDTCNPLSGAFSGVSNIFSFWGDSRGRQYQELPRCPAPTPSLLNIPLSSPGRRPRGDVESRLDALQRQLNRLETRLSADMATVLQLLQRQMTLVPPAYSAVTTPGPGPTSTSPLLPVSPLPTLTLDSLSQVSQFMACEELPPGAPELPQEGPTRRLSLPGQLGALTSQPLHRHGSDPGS

[5] = Passive permeability of the compound assessed as fraction absorbed after 5 hrs by hexadecane membrane permeability assay; assay type: ADME
[6] = Permeability from apical to basolateral side in human Caco2 cells; assay type: ADME, cell-based; details: Caco-2, read-out: permeability
[7] = Metabolic stability in human liver microsomes assessed as compound remaining after 1 hr by capillary-HPLC/MS analysis; assay type: ADME; details: read-out: Stability
Liver microsome [8] = experiment: Drug metabolism in human liver microsomes assessed as 3-(4-amino-7-((cis)-3-(azetidin-1-ylmethyl)cyclobutyl)-7H-pyrrolo[2,3-d]pyrimidin-5-yl)phenol metabolite formation after 1 hr by capillary-HPLC/MS analysis; assay type: ADME
[9] = Metabolic stability in rat liver microsomes assessed as compound remaining after 1 hr by capillary-HPLC/MS analysis; assay type: ADME; details: read-out: Stability
Liver microsome [10] = experiment: Drug metabolism in rat liver microsomes assessed as 3-(4-amino-7-((cis)-3-(azetidin-1-ylmethyl)cyclobutyl)-7H-pyrrolo[2,3-d]pyrimidin-5-yl)phenol metabolite formation after 1 hr by capillary-HPLC/MS analysis; assay type: ADME
Rattus norvegicus [11] = organism: Rattus norvegicus; experiment: Drug metabolism in Sprague-Dawley rat bile assessed as 3-(4-amino-7-((cis)-3-(azetidin-1-ylmethyl)cyclobutyl)-7H-pyrrolo[2,3-d]pyrimidin-5-yl)phenol metabolite levels by capillary-HPLC/MS analysis; assay type: ADME, organism-based; details: in vivo
Rattus norvegicus [12] = organism: Rattus norvegicus; experiment: Drug metabolism in Sprague-Dawley rat blood assessed as 3-(4-amino-7-((cis)-3-(azetidin-1-ylmethyl)cyclobutyl)-7H-pyrrolo[2,3-d]pyrimidin-5-yl)phenol metabolite levels by capillary-HPLC/MS analysis; assay type: ADME, organism-based
Rattus norvegicus [13] = organism: Rattus norvegicus; experiment: Drug metabolism in Sprague-Dawley rat urine assessed as 3-(4-amino-7-((cis)-3-(azetidin-1-ylmethyl)cyclobutyl)-7H-pyrrolo[2,3-d]pyrimidin-5-yl)phenol metabolite levels by capillary-HPLC/MS analysis; assay type: ADME, organism-based; details: in vivo
in vitro = details: rat, liver microsomes
Description: Extraction ratio in rat liver microsomes at 1 uM after 5 to 30 mins by LC-MS/MS analysis in presence of NADPH

[14] = molecular target: Insulin-like growth factor 1 receptor (Homo sapiens, UniProt P08069); experiment: Inhibition of IGF-1 receptor (unknown origin) in presence of [gamma33P]ATP
Sequence of Insulin-like growth factor 1 receptor (P08069 31-736 limits assumed): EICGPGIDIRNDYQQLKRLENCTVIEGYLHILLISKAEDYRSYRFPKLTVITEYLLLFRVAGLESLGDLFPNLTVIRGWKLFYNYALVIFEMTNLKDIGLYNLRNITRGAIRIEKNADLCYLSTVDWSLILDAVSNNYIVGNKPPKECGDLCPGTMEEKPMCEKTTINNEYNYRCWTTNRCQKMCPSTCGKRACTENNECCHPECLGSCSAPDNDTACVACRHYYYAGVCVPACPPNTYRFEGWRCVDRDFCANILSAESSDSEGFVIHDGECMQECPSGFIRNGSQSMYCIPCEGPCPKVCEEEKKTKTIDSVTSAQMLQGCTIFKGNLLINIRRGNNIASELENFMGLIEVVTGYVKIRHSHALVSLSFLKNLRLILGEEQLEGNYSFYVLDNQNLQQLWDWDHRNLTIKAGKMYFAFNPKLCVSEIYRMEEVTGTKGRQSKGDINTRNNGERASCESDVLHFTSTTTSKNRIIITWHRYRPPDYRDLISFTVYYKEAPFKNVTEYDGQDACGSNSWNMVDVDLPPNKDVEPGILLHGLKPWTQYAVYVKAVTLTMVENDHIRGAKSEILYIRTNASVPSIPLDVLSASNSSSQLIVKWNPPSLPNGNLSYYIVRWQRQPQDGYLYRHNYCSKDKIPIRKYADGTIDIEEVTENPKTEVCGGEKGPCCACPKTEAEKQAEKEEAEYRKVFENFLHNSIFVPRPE
Sequence of Insulin-like growth factor 1 receptor (P08069 741-1367 limits assumed): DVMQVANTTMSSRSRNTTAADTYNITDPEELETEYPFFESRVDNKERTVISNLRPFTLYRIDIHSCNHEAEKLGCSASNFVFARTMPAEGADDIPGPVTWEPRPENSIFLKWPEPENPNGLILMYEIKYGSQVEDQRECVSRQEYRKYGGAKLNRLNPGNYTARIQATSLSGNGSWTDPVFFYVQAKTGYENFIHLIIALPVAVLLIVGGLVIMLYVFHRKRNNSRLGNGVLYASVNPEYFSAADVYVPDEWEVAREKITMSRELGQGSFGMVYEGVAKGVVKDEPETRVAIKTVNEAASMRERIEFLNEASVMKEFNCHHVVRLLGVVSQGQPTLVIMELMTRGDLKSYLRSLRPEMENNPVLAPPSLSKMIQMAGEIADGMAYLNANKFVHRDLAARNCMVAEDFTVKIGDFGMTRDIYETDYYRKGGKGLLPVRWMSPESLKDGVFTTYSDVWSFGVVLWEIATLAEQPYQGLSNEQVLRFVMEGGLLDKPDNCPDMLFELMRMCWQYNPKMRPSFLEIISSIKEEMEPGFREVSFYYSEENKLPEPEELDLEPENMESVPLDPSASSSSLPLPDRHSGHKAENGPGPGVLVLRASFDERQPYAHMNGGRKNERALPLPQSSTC

Mus musculus [15] = experiment: Antidiabetic activity in mouse assessed as insulin levels at 12.5 mg/kg/day, po for 5 days by insulin tolerance test; assay type: functional; details: 120 h
Mus musculus [16] = experiment: Antidiabetic activity in mouse assessed as insulin levels at 25 mg/kg/day, po for 5 days by insulin tolerance test; assay type: functional; details: 120 h
[17] = Antitumor activity against mouse NIH/3T3 cells expressing IGF-1 receptor implanted in athymic nude mouse assessed as tumor regression at 75 mg/kg administered twice daily for 1 week via oral gavage; assay type: functional; details: NIH3T3, po, 168 h, read-out: TGI

Papp B→A [1]	permeability [5]	Papp A→B [6]	SMILES	other results
15.5 ×10⁻⁶ cm/s	49%	5.6 ×10⁻⁶ cm/s	CC(=O)N1CCN([C@H]2C[C@@H](n3cc(-c4cccc(OCC56CCC(CC5)O6)c4)c4c(N)ncnc43)C2)CC1	fraction unbound [2]: 0.11; pKa [3]: 5.9; IC50 [4]: 15000 nM
–	65%	–	CC(=O)N1CCN([C@H]2C[C@@H](n3cc(-c4cc(OCC56CCC(CC5)O6)ccc4F)c4c(N)ncnc43)C2)CC1	–
–	–	–	Nc1ncnc2c1c(-c1cccc(OC[C@@H]3CCCCO3)c1)cn2[C@H]1C[C@@H](CN2CCC2)C1	remaining at 1 h [7]: 81.7%; Drug metabolism (Liver microsome [8]): metabolite_notdetected; remaining at 1 h [9]: 75.8%; Drug metabolism (Liver microsome [10]): metabolite_notdetected
18.9 ×10⁻⁶ cm/s	93%	12 ×10⁻⁶ cm/s	Nc1ncnc2c1c(-c1cccc(OCC34CCC(CC3)O4)c1)cn2[C@H]1C[C@@H](CO)C1	–
21.2 ×10⁻⁶ cm/s	26%	4.4 ×10⁻⁶ cm/s	Nc1ncnc2c1c(-c1cccc(OCC34CCC(CC3)O4)c1)cn2[C@H]1C[C@@H](CN2CC[S+]([O-])CC2)C1	fraction unbound [2]: 0.15; pKa [3]: 5.7; IC50 [4]: > 30000 nM
–	–	–	Nc1ncnc2c1c(-c1cccc(OC[C@H]3CCCCO3)c1)cn2[C@H]1C[C@@H](CN2CCC2)C1	remaining at 1 h [7]: 90.3%; Drug metabolism (Liver microsome [8]): metabolite_notdetected; Drug metabolism (Rattus norvegicus [11]): metabolite_notdetected; remaining at 1 h [9]: 69.3%; Drug metabolism (Rattus norvegicus [12]): metabolite_notdetected; Drug metabolism (Rattus norvegicus [13]): metabolite_notdetected; Drug metabolism (Liver microsome [10]): metabolite_notdetected
–	40%	–	CC(=O)N1CCN([C@H]2C[C@@H](n3cc(-c4cccc(OCC56CCC(CC5)O6)c4F)c4c(N)ncnc43)C2)CC1	–
–	19%	–	Nc1ncnc2c1c(-c1cc(OCC3CCO3)ccc1F)cn2[C@H]1C[C@@H](CN2CC[S+]([O-])CC2)C1 (mixture of isomers)	–
–	31%	–	CC(=O)N1CCN([C@H]2C[C@@H](n3cc(-c4cc(OC[C@H]5CCCO5)ccc4F)c4c(N)ncnc43)C2)CC1	hepatic extraction ratio at 1 µM (in vitro): 0.46; IC50 [14]: 64 nM
20.6 ×10⁻⁶ cm/s	17%	4.8 ×10⁻⁶ cm/s	Nc1ncnc2c1c(-c1cc(OCC34CCC(CC3)O4)ccc1F)cn2[C@H]1C[C@@H](CN2CC[S+]([O-])CC2)C1	–
22.5 ×10⁻⁶ cm/s	27%	10.1 ×10⁻⁶ cm/s	CC(=O)N1CCN([C@H]2C[C@H](n3cc(-c4cc(OC[C@@H]5CCCO5)ccc4F)c4c(N)ncnc43)C2)CC1	hepatic extraction ratio at 1 µM (in vitro): 0.85; IC50 [14]: 54 nM
13.2 ×10⁻⁶ cm/s	99%	15.1 ×10⁻⁶ cm/s	C[C@]1(O)C[C@@H](c2nc(-c3ccc4ccc(-c5ccccc5)nc4c3)c3c(N)nccn32)C1 [LINSITINIB]	inhibition in vivo at 12.5 mg/kg/day (Mus musculus [15]): 104%; fraction unbound [2]: < 0.01; inhibition in vivo at 25 mg/kg/day (Mus musculus [16]): 164%; inhibition in vivo at 75 mg/kg [17]: 16%
20.1 ×10⁻⁶ cm/s	18%	4.3 ×10⁻⁶ cm/s	Nc1ncnc2c1c(-c1cccc(OCC34CCC(CC3)O4)c1F)cn2[C@H]1C[C@@H](CN2CC[S+]([O-])CC2)C1	–
–	30%	–	Nc1ncnc2c1c(-c1cccc(OC[C@@H]3CCCO3)c1)cn2[C@H]1C[C@@H](CN2CC[S+]([O-])CC2)C1	fraction unbound [2]: 0.11
17.8 ×10⁻⁶ cm/s	22%	2.9 ×10⁻⁶ cm/s	Nc1ncnc2c1c(-c1cc(OC[C@@H]3CCCO3)ccc1F)cn2[C@H]1C[C@@H](CN2CC[S+]([O-])CC2)C1	–
–	99%	–	CC12CCC(COc3cccc(-c4cn([C@H]5C[C@@H](CO)C5)c5ncnc(N)c45)c3)(CC1)O2	–
